# Assay results published in US20260345619A1 (Principia Biopharma Inc., priority 2023, published 2026).
# Assay: Asthma Quality of Life Questionnaire with Standardized Activities (AQLQ(S))
# Assay type: in vivo, human
# Conditions: mITT
# Text: The AQLQ(S) is a self-administered patient reported outcome to measure the functional impairments that are most troublesome to adolescents and adults ≥12 years of age as a result of their asthma.
# Asthma Quality of Life Questionnaire with Standardized Activities (AQLQ(S)) self-administered (≥12 years)
# The AQLQ(S) was designed as a self-administered patient reported outcome to measure the functional impairments that are most troublesome to adolescents and adults ≥12 years of age as a result of their asthma. The instrument is comprised of 32 items, each rated on a 7-point Likert scales from 1 to 7. The AQLQ(S) has 4 domains. The domains and the number of items in each domain are as follows: • Symptoms (12 items) • Activity limitation (11 items) • Emotional function (5 items) • Environmental stimuli (4 items)
# A global score is calculated ranging from 1 to 7 and a score by domain. Higher scores indicate better quality of life. […] Patients were to complete the questionnaire in an electronic diary during on-site visits.
# Secondary endpoints included pre-bronchodilator FEV1 change from baseline at EOT, ACQ-5 score change from baseline, and AQLQ score change from baseline. Other secondary and exploratory endpoints are described in Table 2.
compound,measurement,setting,value
"CC(C)(C=C(C#N)C(=O)N1CCC[C@@H](n2nc(-c3ccc(Oc4ccccc4)cc3F)c3c(N)ncnc32)C1)N1CCN(C2COC2)CC1 (mixture of isomers) [rilzabrutinib, (R)-2-[3-[4-amino-3-(2-fluoro-4-phenoxy-phenyl)pyrazolo[3,4-d]pyrimidin-1-yl]piperidine-1-carbonyl]-4-methyl-4-[4-(oxetan-3-yl)piperazin-1-yl]pent-2-enenitrile]","AQLQ(S) Activity limitation score, Mean","Week 4, 400 mg TID",5.15
same,"AQLQ(S) Activity limitation score, Median","Week 4, 400 mg TID",5.18
same,"AQLQ(S) Activity limitation score, change from baseline, LS Mean","Week 4, 400 mg TID",0.34
same,"AQLQ(S) Activity limitation score, change from baseline, Mean","Week 4, 400 mg TID",0.16
same,"AQLQ(S) Activity limitation score, change from baseline, Median","Week 4, 400 mg TID",0.09
same,"AQLQ(S) Emotional function score, Mean","Week 4, 400 mg TID",5.37
same,"AQLQ(S) Emotional function score, Median","Week 4, 400 mg TID",5.40
same,"AQLQ(S) Emotional function score, change from baseline, LS Mean","Week 4, 400 mg TID",0.35
same,"AQLQ(S) Emotional function score, change from baseline, Mean","Week 4, 400 mg TID",0.22
same,"AQLQ(S) Emotional function score, change from baseline, Median","Week 4, 400 mg TID",0.20
same,"AQLQ(S) Environmental stimuli score, Mean","Week 4, 400 mg TID",4.78
same,"AQLQ(S) Environmental stimuli score, change from baseline, LS Mean","Week 4, 400 mg TID",0.30
same,"AQLQ(S) Environmental stimuli score, change from baseline, Mean","Week 4, 400 mg TID",0.12
same,"AQLQ(S) Environmental stimuli score, change from baseline, Median","Week 4, 400 mg TID",0.25
same,"AQLQ(S) Global score, Mean","Week 4, 400 mg TID",5.16
same,"AQLQ(S) Global score, Median","Week 4, 400 mg TID",5.03
same,"AQLQ(S) Global score, change from baseline, LS Mean","Week 4, 400 mg TID",0.33
same,"AQLQ(S) Global score, change from baseline, Mean","Week 4, 400 mg TID",0.19
same,"AQLQ(S) Global score, change from baseline, Median","Week 4, 400 mg TID",0.13
same,"AQLQ(S) Symptoms score, Mean","Week 4, 400 mg TID",5.19
same,"AQLQ(S) Symptoms score, Median","Week 4, 400 mg TID",5.08
same,"AQLQ(S) Symptoms score, change from baseline, LS Mean","Week 4, 400 mg TID",0.38
same,"AQLQ(S) Symptoms score, change from baseline, Mean","Week 4, 400 mg TID",0.22
same,"AQLQ(S) Symptoms score, change from baseline, Median","Week 4, 400 mg TID",0.25
same,"AQLQ(S) Emotional function score, change from baseline, LS Mean Diff vs. placebo","Week 4, 400 mg TID, 95% CI −0.12, 0.54",0.21
same,"AQLQ(S) Symptoms score, change from baseline, LS Mean Diff vs. placebo","Week 4, 400 mg TID, 95% CI −0.14, 0.44",0.15
same,"AQLQ(S) Global score, change from baseline, LS Mean Diff vs. placebo","Week 4, 400 mg TID, 95% CI −0.18, 0.36",0.09
same,"AQLQ(S) Activity limitation score, change from baseline, LS Mean Diff vs. placebo","Week 4, 400 mg TID, 95% CI −0.20, 0.35",0.08
same,"AQLQ(S) Environmental stimuli score, change from baseline, LS Mean Diff vs. placebo","Week 4, 400 mg TID, 95% CI −0.37, 0.30",−0.03
same,"AQLQ(S) Activity limitation score, Mean","Week 8, 400 mg BID",5.72
same,"AQLQ(S) Activity limitation score, Median","Week 8, 400 mg BID",5.91
same,"AQLQ(S) Activity limitation score, change from baseline, LS Mean","Week 8, 400 mg BID",0.89
same,"AQLQ(S) Activity limitation score, change from baseline, Mean","Week 8, 400 mg BID",0.96
same,"AQLQ(S) Activity limitation score, change from baseline, Median","Week 8, 400 mg BID",0.82
same,"AQLQ(S) Emotional function score, Mean","Week 8, 400 mg BID",6.12
same,"AQLQ(S) Emotional function score, Median","Week 8, 400 mg BID",6.20
same,"AQLQ(S) Emotional function score, change from baseline, LS Mean","Week 8, 400 mg BID",1.06
same,"AQLQ(S) Emotional function score, change from baseline, Mean","Week 8, 400 mg BID",0.87
same,"AQLQ(S) Emotional function score, change from baseline, Median","Week 8, 400 mg BID",0.60
same,"AQLQ(S) Environmental stimuli score, Mean","Week 8, 400 mg BID",5.19
same,"AQLQ(S) Environmental stimuli score, change from baseline, LS Mean","Week 8, 400 mg BID",0.66
same,"AQLQ(S) Environmental stimuli score, change from baseline, Mean","Week 8, 400 mg BID",0.73
same,"AQLQ(S) Environmental stimuli score, change from baseline, Median","Week 8, 400 mg BID",0.50
same,"AQLQ(S) Global score, Mean","Week 8, 400 mg BID",5.79
same,"AQLQ(S) Global score, Median","Week 8, 400 mg BID",5.88
same,"AQLQ(S) Global score, change from baseline, LS Mean","Week 8, 400 mg BID",0.92
same,"AQLQ(S) Global score, change from baseline, Mean","Week 8, 400 mg BID",0.90
same,"AQLQ(S) Global score, change from baseline, Median","Week 8, 400 mg BID",0.63
same,"AQLQ(S) Symptoms score, Mean","Week 8, 400 mg BID",5.93
same,"AQLQ(S) Symptoms score, Median","Week 8, 400 mg BID",6.00
same,"AQLQ(S) Symptoms score, change from baseline, LS Mean","Week 8, 400 mg BID",0.99
same,"AQLQ(S) Symptoms score, change from baseline, Mean","Week 8, 400 mg BID",0.91
same,"AQLQ(S) Symptoms score, change from baseline, Median","Week 8, 400 mg BID",0.83
same,"AQLQ(S) Environmental stimuli score, change from baseline, LS Mean Diff vs. placebo","Week 8, 400 mg BID, 95% CI 0.03, 1.33",0.68
same,"AQLQ(S) Symptoms score, change from baseline, LS Mean Diff vs. placebo","Week 8, 400 mg BID, 95% CI 0.35, 1.18",0.76
same,"AQLQ(S) Global score, change from baseline, LS Mean Diff vs. placebo","Week 8, 400 mg BID, 95% CI 0.39, 1.20",0.79
same,"AQLQ(S) Activity limitation score, change from baseline, LS Mean Diff vs. placebo","Week 8, 400 mg BID, 95% CI 0.39, 1.21",0.80
same,"AQLQ(S) Emotional function score, change from baseline, LS Mean Diff vs. placebo","Week 8, 400 mg BID, 95% CI 0.42, 1.54",0.98
same,"AQLQ(S) Activity limitation score, Mean","Week 8, 400 mg TID",5.28
same,"AQLQ(S) Activity limitation score, Median","Week 8, 400 mg TID",5.27
same,"AQLQ(S) Activity limitation score, change from baseline, LS Mean","Week 8, 400 mg TID",0.42
same,"AQLQ(S) Activity limitation score, change from baseline, Mean","Week 8, 400 mg TID",0.29
same,"AQLQ(S) Activity limitation score, change from baseline, Median","Week 8, 400 mg TID",0.36
same,"AQLQ(S) Emotional function score, Mean","Week 8, 400 mg TID",5.52
same,"AQLQ(S) Emotional function score, Median","Week 8, 400 mg TID",5.40
same,"AQLQ(S) Emotional function score, change from baseline, LS Mean","Week 8, 400 mg TID",0.51
same,"AQLQ(S) Emotional function score, change from baseline, Mean","Week 8, 400 mg TID",0.37
same,"AQLQ(S) Emotional function score, change from baseline, Median","Week 8, 400 mg TID",0.40
same,"AQLQ(S) Environmental stimuli score, Mean","Week 8, 400 mg TID",4.90
same,"AQLQ(S) Environmental stimuli score, change from baseline, LS Mean","Week 8, 400 mg TID",0.36
same,"AQLQ(S) Environmental stimuli score, change from baseline, Mean","Week 8, 400 mg TID",0.24
same,"AQLQ(S) Environmental stimuli score, change from baseline, Median","Week 8, 400 mg TID",0.25
